Measurements reported in patent US6750034B1, “DNA encoding human serine protease D-G” (Ortho-McNeil Pharmaceutical, Inc., priority 2000, dated 2004).
[ ]: non-standard residue; d: D form. The star is where a group is joined. pNA = O=[N+]([O-])c1ccc(N*)cc1; Cbz = O=C(OCc1ccccc1)*

Molecular target: T1, activated protease D-G-6×HIS (Homo sapiens, UniProt Q9NRS4)
T1 construct: enterokinase cleavage site from human trypsinogen I (EK) (N, cleaved yes); made in house; host or cells: Sf9 insect cells, baculovirus (pFastBac 1)
Test: Chromogenic (amidolytic) assay, release of pNA from synthetic substrates
Type: biochemical
Conditions: recombinant activated protease D-G-6×HIS; substrate 500 uM; 10 mM TRIS-HCl pH 7.8, 25 mM NaCl, 25 mM imidazole; 37° C., 120 min, 405 nm; N.A. = No Activity
Procedure: Amidolytic activities of the activated serine proteases are monitored by release of para-nitroaniline (pNA) from synthetic substrates that are commercially available (Bachem California Inc., Torrance, […].; American Diagnostica Inc., Greenwich, Conn.; Kabi Pharmacia Hepar Inc., Franklin, Ohio). Assay mixtures contain chromogenic substrates in 500 uM and 10 mM TRIS-HCl (pH 7.8), 25 mM NaCl, and 25 mM imidazole. Release of pNA is measured over 120 min at 37° C. on a micro-plate reader (Molecular Devices, Menlo Park, Calif.) with a 405 nm absorbance filter. The initial reaction rates (Vmax, mOD/min) are determined from plots of absorbance versus time using Softmax (Molecular Devices, Menlo Park, Calif.). The specific activities (nmole pNA produced/min/ug protein) of the activated protease D-G-6×HIS for the various substrates are presented in Table 1.
Table 1—The specific activity (nmole pNA produced/min/ug protein) of recombinant activated protease D-G-6×HIS, determined for the various substrates analyzed, is shown.

T1 sequence (Q9NRS4 205-434 limits assumed): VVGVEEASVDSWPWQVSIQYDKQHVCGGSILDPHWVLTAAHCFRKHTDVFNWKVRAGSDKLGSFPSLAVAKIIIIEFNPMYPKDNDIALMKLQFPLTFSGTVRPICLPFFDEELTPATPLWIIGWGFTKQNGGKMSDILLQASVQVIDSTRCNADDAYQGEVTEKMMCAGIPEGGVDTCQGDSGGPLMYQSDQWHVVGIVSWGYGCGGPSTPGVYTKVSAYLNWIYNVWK

Q: How did the “Specific Activity” value turn out when H-[dV]-Leu-Lys-pNA was run?
A: 0.034 ± 0.003 nmole pNA produced/min/ug protein

Q: Which “Specific Activity” value does the source give for H-[dV]-Leu-Arg-pNA here?
A: 0.025 ± 0.003 nmole pNA produced/min/ug protein

Q: H-D-Pro-HHT-Arg-pNA was tested. Which “Specific Activity” value did it give?
A: 0.046 ± 0.001 nmole pNA produced/min/ug protein

Q: With Cbz-Phe-Arg-pNA as the substance, how does the “Specific Activity” value read?
A: 0.116 ± 0.006 nmole pNA produced/min/ug protein

Q: With H-D-LYS(CBO)-Pro-Arg-pNA as the substance, how does the “Specific Activity” value read?
A: 0.076 ± 0.008 nmole pNA produced/min/ug protein
